In test [1] the target is GluN1–1a/2D (Rattus norvegicus, UniProt P35439+Q62645). The experiment in a line: Two-electrode voltage-clamp recordings, Xenopus oocytes. In kind it is cell-based. The settings on record: for nH (Hill coefficient): inhibition.
For test [2], the target named is GluN1–1a/2B (Rattus norvegicus, UniProt P35439+Q00960). The test is described as above. The settings on record: for nH (Hill coefficient): inhibition. In kind it is cell-based.
The target in test [3] is GluN1–1a/2BC1/2DC2 (Rattus norvegicus, UniProt P35439+Q00959+Q00960+Q62645, A876H/F846L/G856D/H848F/K857R/M851T/M860L/Q845K/R869K/V861L/V866F). The test is described as above. In kind it is cell-based. The settings on record: for Relative Imin: fitted minimal response relative to control; for nH (Hill coefficient): inhibition.
Test [4] has as its system NMDAR-EPSCs in hippocampal interneurons (CA1 s.r./s.l.m.). The experiment in a line: Whole-cell patch-clamp of NMDAR-EPSCs in acute hippocampal slices. In kind it is cell-based, mouse. As to conditions: for NMDAR-EPSC peak amplitude, % of baseline: 10 μM, +40 mV, P21–28 slices.
Test [5] deals with NMDAR-EPSCs in hippocampal CA1 pyramidal cells. The description is as above. Format: cell-based, mouse. The settings on record: for NMDAR-EPSC peak amplitude, % of baseline: 10 μM, +40 mV, P21–28 slices; for effect on EPSC decay time: treatment versus baseline, paired t test, 10 μM (spermine 100 μM).
[6] abbreviates: Mg2+ block, holding potential −40 mV.
Setting [7] is: Mg2+ block, holding potential −60 mV.
[8] abbreviates: Mg2+ block, holding potential −80 mV.
[9] abbreviates: Mg2+ block, holding potential −100 mV.
Where [10] appears, read: Woodhull model, current-voltage relationship with 0.1 mM Mg2+.
The mark [11] stands for this setting: channel block, −20 mV, + 1 mM Mg2+.
[12] abbreviates: channel block, −20 mV, control (absence of Mg2+).
Setting [13] is: channel block, −40 mV, + 1 mM Mg2+.
The mark [14] stands for this setting: channel block, −40 mV, control (absence of Mg2+).
Setting [15] is: channel block, −60 mV, + 1 mM Mg2+.
Setting [16] is: channel block, −60 mV, control (absence of Mg2+).
The mark [17] stands for this setting: fitted minimal response relative to control, isoform 1a.
[18] abbreviates: isoform 1a, 300 μM glutamate plus 100 μM glycine.
Where [19] appears, read: IC50, channel block, −20 mV, + 1 mM Mg2+.
The mark [20] stands for this setting: IC50, channel block, −20 mV, control (absence of Mg2+).
The mark [21] stands for this setting: IC50, channel block, −40 mV, + 1 mM Mg2+.
Where [22] appears, read: IC50, channel block, −40 mV, control (absence of Mg2+).
[23] abbreviates: IC50, channel block, −60 mV, + 1 mM Mg2+.
[24] abbreviates: IC50, channel block, −60 mV, control (absence of Mg2+).

“And” between values parts separate entries of the source, which are not always exact repeats. Identical values can stand only once.

GluN1–1a/2D, sequence (Q62645 28-1323, other chains not shown): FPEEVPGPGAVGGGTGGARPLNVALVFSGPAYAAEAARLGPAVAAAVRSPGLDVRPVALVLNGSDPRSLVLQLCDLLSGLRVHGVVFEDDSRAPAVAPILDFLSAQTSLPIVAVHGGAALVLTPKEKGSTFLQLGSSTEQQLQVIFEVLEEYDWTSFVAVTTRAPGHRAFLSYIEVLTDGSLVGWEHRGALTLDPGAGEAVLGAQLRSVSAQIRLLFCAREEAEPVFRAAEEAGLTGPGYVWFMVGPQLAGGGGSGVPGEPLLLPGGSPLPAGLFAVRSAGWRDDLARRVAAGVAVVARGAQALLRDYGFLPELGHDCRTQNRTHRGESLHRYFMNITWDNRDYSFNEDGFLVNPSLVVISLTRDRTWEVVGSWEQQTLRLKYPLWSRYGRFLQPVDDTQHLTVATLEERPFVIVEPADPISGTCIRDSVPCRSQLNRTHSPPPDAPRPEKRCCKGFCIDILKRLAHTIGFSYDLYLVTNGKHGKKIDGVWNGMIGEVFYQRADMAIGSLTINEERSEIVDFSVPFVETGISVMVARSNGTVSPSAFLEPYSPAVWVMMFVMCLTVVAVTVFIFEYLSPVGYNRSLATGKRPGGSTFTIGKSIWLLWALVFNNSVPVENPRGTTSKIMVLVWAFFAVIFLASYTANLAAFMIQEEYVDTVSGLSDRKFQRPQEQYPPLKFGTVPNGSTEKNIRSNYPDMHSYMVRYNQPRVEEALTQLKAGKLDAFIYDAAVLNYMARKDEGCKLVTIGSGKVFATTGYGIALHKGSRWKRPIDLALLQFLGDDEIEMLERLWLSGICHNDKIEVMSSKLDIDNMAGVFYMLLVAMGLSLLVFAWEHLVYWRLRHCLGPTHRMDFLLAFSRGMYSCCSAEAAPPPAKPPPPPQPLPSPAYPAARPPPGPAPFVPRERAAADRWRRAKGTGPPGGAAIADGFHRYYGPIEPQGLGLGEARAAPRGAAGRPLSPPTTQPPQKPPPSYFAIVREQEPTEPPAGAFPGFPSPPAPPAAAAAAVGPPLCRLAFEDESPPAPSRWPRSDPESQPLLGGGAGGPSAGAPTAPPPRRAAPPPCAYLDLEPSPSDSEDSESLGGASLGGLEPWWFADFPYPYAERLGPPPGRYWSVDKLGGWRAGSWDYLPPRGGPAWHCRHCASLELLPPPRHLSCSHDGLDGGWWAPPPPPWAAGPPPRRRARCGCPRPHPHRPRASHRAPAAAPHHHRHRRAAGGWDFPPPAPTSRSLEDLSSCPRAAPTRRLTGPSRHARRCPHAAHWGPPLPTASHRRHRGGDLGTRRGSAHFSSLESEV
GluN1–1a/2B, sequence (Q00960 27-1482, other chains not shown): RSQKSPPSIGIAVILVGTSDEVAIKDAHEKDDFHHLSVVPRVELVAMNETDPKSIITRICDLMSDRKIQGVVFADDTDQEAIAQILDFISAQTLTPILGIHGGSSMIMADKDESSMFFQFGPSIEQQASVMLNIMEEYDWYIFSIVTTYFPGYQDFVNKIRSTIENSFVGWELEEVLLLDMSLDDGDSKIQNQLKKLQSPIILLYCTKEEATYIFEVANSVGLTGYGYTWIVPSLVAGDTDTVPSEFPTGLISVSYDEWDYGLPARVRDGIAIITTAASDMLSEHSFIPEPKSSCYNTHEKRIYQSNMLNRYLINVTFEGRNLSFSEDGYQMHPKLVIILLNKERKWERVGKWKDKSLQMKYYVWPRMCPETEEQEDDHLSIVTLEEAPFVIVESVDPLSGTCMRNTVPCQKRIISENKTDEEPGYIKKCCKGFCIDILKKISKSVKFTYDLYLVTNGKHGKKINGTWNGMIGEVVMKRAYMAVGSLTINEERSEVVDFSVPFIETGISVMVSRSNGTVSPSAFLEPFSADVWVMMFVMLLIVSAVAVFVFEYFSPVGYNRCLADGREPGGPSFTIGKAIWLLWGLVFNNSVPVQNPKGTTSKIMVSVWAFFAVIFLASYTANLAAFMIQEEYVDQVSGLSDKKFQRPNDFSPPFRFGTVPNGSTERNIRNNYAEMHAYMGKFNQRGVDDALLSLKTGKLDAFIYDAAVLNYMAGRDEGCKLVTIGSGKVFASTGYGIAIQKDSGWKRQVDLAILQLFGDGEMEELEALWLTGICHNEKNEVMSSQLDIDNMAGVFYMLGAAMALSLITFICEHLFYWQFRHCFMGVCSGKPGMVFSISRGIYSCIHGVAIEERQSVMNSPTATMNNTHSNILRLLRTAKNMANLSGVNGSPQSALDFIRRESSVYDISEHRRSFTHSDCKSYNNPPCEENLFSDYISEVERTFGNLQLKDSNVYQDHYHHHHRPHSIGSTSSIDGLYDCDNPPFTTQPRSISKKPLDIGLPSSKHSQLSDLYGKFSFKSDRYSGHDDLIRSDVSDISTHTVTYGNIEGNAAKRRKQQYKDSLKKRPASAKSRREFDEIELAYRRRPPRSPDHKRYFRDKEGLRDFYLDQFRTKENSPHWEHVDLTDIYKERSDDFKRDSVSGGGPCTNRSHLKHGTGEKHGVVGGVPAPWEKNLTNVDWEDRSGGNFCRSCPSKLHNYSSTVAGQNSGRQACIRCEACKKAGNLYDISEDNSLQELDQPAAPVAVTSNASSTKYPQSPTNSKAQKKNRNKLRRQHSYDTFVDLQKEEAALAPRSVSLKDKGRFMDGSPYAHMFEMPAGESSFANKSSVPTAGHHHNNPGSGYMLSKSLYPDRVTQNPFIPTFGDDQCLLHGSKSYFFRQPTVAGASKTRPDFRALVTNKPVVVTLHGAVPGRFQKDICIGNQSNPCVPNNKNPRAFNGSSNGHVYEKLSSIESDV

As a reminder, the IC50 is the concentration at which inhibition is half-maximal. Consider `[Mg+2]` [Mg^2+], for which the IC50 in test [1] (setting [6]) is 937 ± 85.9 µM; in test [1] (setting [7]), 254 µM; in test [1] (setting [8]), 72.5 ± 1.8 µM; in test [1] (setting [9]), 25.1 ± 0.4 µM; in test [2] (setting [6]), 161 ± 11.8 µM; in test [2] (setting [7]), 26 µM and 25.5 µM. The IC50 in test [2] (setting [8]) was 5.5 ± 0.4 µM; in test [2] (setting [9]) it was 1.6 ± 0.3 µM; in test [3] (setting [6]), 518 ± 14.3 µM; in test [3] (setting [7]), 80 µM and 79.2 µM; in test [3] (setting [8]) it was 19.9 ± 0.8 µM; in test [3] (setting [9]), 6.8 ± 0.5 µM. For the same molecule, the nH in test [1] (setting [6]) came out at 1.0; in test [1] (setting [7]) it was 1.0; in test [1] (setting [8]), 1.0; in test [1] (setting [9]), 1.0; in test [2] (setting [6]), 0.9; in test [2] (setting [7]) it was 1.0. Besides, the nH in test [2] (setting [8]) turned out to be 1.0; in test [2] (setting [9]), 0.9; in test [3] (setting [6]), 0.8; in test [3] (setting [7]), 0.9; in test [3] (setting [8]) it was 0.9; in test [3] (setting [9]), 0.9. In addition, the “δ, fraction of the membrane electric field sensed by the blocking site” value in test [1] (Woodhull model, 0.1 mM Mg2+) amounted to 0.82; in test [2] (Woodhull model, 0.1 mM Mg2+) it was 1.08; in test [3] (Woodhull model, 0.1 mM Mg2+), 0.95. For the same molecule, the “K0.5(0 mV), Mg2+ concentration producing half-maximal block at 0 mV” value is 11 mM in test [1] (setting [10]), 4.5 mM in test [2] (setting [10]) and 6.6 mM in test [3] (setting [10]).

For `CC12CC3CC(C)(C1)CC(N)(C3)C2` [memantine], the nH stood at 1.0 in test [1] (setting [11]); 1.1 in test [1] (setting [12]); 1.0 in test [1] (setting [13]); 1.1 in test [1] (setting [14]); 1.0 in test [1] (setting [15]); 1.1 in test [1] (setting [16]). Further, the nH came to 1.1 in test [2] (setting [11]); 0.9 in test [2] (setting [12]); 1.0 in test [2] (setting [13]); 1.0 in test [2] (setting [14]); 1.1 in test [2] (setting [15]); 1.0 in test [2] (setting [16]). Also, the nH in test [3] (setting [11]) stood at 1.0; in test [3] (setting [12]), 1.1; in test [3] (setting [13]) it was 0.9; in test [3] (setting [14]) it was 1.0; in test [3] (setting [15]) it was 0.9; in test [3] (setting [16]), 1.0.

In the case of `Cc1nccn1Cc1cc(-c2ccc(F)c(C(F)F)c2)cnn1.Cl.Cl` [EVT-101], the “Relative Imin” value in test [1] (at 3 μM, isoform 1a) amounted to 92 ± 2%; in test [2] (setting [17]), 3 ± 1%; in test [3] (isoform 1a), 37 ± 2 %. Further, the “nH (Hill coefficient)” value in test [2] (isoform 1a) worked out at 1.0; in test [3] (isoform 1a), 1.1. Further, the figures for the maximal inhibition in test [2] (isoform 1a) and in test [3] (isoform 1a) were ~ 95% and ~ 65%, respectively. The IC50 in test [2] (setting [18]) worked out at 0.009 ± 0.001 µM; in test [3] (setting [18]) it was 0.012 ± 0.001 µM.

`Cc1ncc(CNC(=O)c2cnc(CNS(=O)(=O)c3ccc(F)c(Cl)c3)cn2)s1` [MPX-004]: in test [4], the “NMDAR-EPSC peak amplitude, % of baseline” value is 98 ± 5 % of baseline. In test [5], the “NMDAR-EPSC peak amplitude, % of baseline” value is given as 45 ± 2 % of baseline and the “effect on EPSC decay time” value is reported as “significantly slowed”.

As for `Cc1ccc2[nH]c(=O)c(C3=NN(C(=O)CCC(=O)O)C(c4ccc(Br)cc4)C3)c(-c3ccccc3)c2c1` (centres unmarked) [DQP-1105], the “Relative Imin” value in test [1] (setting [17]) was −3 ± 1%; in test [2] (at 30 μM, isoform 1a), 58 ± 2%; in test [3] (isoform 1a), −8 ± 2 %. Also, the “nH (Hill coefficient)” value in test [1] (isoform 1a) came to 1.0; in test [3] (isoform 1a) it was 0.8. The maximal inhibition in test [1] (isoform 1a) and in test [3] (isoform 1a) was ~ 100% in each case. The half-maximal inhibitory concentration (IC50) was 2.2 ± 0.1 µM in test [1] (setting [18]) and 13 ± 1 µM in test [3] (setting [18]).

With `CNC1(c2ccccc2Cl)CCCCC1=O` (centres unmarked) [ketamine], the IC50 in test [1] (setting [19]) came out at 4.5 ± 0.5 µM; in test [1] (setting [20]), 3.8 ± 0.2 µM; in test [1] (setting [21]) it was 3.5 ± 0.5 µM; in test [1] (setting [22]), 2.4 ± 0.2 µM; in test [1] (setting [23]), 2.6 ± 0.4 µM; in test [1] (setting [24]), 1.3 ± 0.1 µM. Further, the IC50 in test [2] (setting [19]) is 16.3 ± 1.9 µM; in test [2] (setting [20]), 4.2 ± 0.7 µM; in test [2] (setting [21]) it was 19.2 ± 2 µM; in test [2] (setting [22]), 2.1 ± 0.3 µM; in test [2] (setting [23]) it was 17 ± 2 µM; in test [2] (setting [24]) it was 1 ± 0.1 µM. Moreover, the nH in test [1] (setting [11]) was 1.0; in test [1] (setting [12]), 1.0; in test [1] (setting [13]), 1.0; in test [1] (setting [14]), 1.0; in test [1] (setting [15]), 1.1; in test [1] (setting [16]), 1.0. Further, the nH in test [2] (setting [11]) stood at 1.2; in test [2] (setting [12]), 1.0; in test [2] (setting [13]), 1.3; in test [2] (setting [14]), 1.0; in test [2] (setting [15]), 1.1; in test [2] (setting [16]), 1.0.

Turning to `C[C@@H]([C@@H](O)c1ccc(O)cc1)N1CCC(O)(c2ccccc2)CC1` [CP-101,606], the figures for the “NMDAR-EPSC peak amplitude, % of baseline” value in test [4] and in test [5] were 30 ± 3 % of baseline and 50 ± 3 % of baseline, respectively. The “effect on EPSC decay time” value is “unchanged” in test [4] (treatment versus baseline, paired t test, 10 μM (spermine 100 μM)) and “significantly accelerated” in test [5]. Also, the “nH (Hill coefficient)” value in test [2] (isoform 1a) and in test [3] (isoform 1a) was 1.4 each time. The maximal inhibition in test [2] (isoform 1a) is ~ 95%; in test [3] (isoform 1a) it was ~ 65%.

As for `COc1ccc2nc(/C=C/c3cccc([N+](=O)[O-])c3)n(-c3ccc(C(=O)O)cc3)c(=O)c2c1` [QNZ-46], the “Relative Imin” value in test [1] (setting [17]) is recorded as −3 ± 1%; in test [2] (at 30 μM, isoform 1a), 76 ± 1%; in test [3] (isoform 1a), 4 ± 1 %. Further, the “nH (Hill coefficient)” value in test [1] (isoform 1a) and in test [3] (isoform 1a) was 1.0 each time. The maximal inhibition in test [1] (isoform 1a) and in test [3] (isoform 1a) was ~ 100% in each case. Besides, the figures for the 50% inhibitory concentration (IC50) in test [1] (setting [18]) and in test [3] (setting [18]) were 2.7 ± 0.1 µM and 10 ± 1 µM, respectively.

The values above are taken from article PMC6858497 (The Journal of physiology, 2019).
